Measured values published in patent EP0564248A1, “N-(2-hydroxyethyl)-N-bis(methylenephosphonic acid) and corresponding N-oxide thereof for high pH scale control” (Calgon Corporation, priority 1992, dated 1993).

Experiment: CaCO3 scale inhibition at pH 9 and 300X calcite saturation (% inhibition by calcium titration, Schwarzenbach method)
Method: PROCEDURE: Scaling water containing 250 mg/L of CO (-2)/(3) [formula] and 600 mg/L of alkalinity at a pH of 9.0 and 55°C was used to evaluate scale inhibition performance of test solutions over a 24 hr period. Test solutions were analyzed by withdrawing 10 g of test solution and adding it to the appropriate container through a 0.2 µ filter, titrating for calcium, and calculating % inhibition by the Schwarzenbach method.

O=P(O)(O)CN(CCO)CP(=O)(O)O [Sample No. 1, N-(2-hydroxyethyl)-N-bis(methylenephosphonic acid)]
scale inhibition (10% Excess Ca/Alk, 25ppm): 67.8% | scale inhibition (10% Excess Ca/Alk, 50ppm): 85.6% | scale inhibition (60°C, 50ppm): 82.6% | scale inhibition (pH 9, 300X CaCO₃, 50ppm, 24hrs): 90.8% | scale inhibition (pH 9, 300X CaCO₃, 50ppm, 4 days): 87.5%
